pKi: −log10 of the molar value.
Tests used:
human orexin-2 receptor = biological target: T1, human orexin-2 receptor (Homo sapiens, UniProt O43614); test: radioligand binding assay, OX2 receptor (hOX2 Bind hKi); settings: membranes from CHO cells expressing the OX2 receptor
T1 construct: expressed in transfected cells; host or cells: CHO cells (membranes)
T1 sequence (O43614 1-444): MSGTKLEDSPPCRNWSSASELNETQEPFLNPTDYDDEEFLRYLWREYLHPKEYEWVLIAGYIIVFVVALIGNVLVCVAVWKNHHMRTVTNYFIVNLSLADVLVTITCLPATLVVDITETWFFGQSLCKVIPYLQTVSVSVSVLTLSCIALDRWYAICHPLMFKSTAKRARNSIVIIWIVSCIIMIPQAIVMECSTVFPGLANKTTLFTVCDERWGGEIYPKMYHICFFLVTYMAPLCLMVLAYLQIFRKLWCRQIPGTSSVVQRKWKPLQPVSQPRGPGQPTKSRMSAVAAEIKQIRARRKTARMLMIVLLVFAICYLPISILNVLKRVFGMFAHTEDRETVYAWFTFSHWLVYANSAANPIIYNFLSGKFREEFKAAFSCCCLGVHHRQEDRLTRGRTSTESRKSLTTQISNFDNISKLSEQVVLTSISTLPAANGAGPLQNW
Protocol: The utility of the compounds in accordance with the present invention as orexin receptor OX1R and/or OX2R antagonists may be readily determined without undue experimentation by methodology well known in the art, including the “FLIPR Ca^2+ Flux Assay” (Okumura et al., Biochem. Biophys. Res. Comm. 280:976-981, 2001). In a typical experiment the OX1 and OX2 receptor antagonistic activity of the compounds of the present invention was determined in accordance with the following experimental method. For intracellular calcium measurements, Chinese hamster ovary (CHO) cells expressing the rat orexin-1 receptor or the human orexin-2 receptor, are grown in Iscove's modified DMEM containing 2 mM L-glutamine, […], 1% hypoxanthine-thymidine supplement, 100 U/ml penicillin, 100 μg/ml streptomycin and 10% heat-inactivated fetal calf serum (FCS). The cells are seeded at 20,000 cells/well into Becton-Dickinson black 384-well clear bottom sterile plates coated with poly-D-lysine. All reagents were from GIBCO-Invitrogen Corp. The seeded plates are incubated overnight at 37° C. and 5% CO2. Ala-6,12 human orexin-A as the agonist is prepared as a 1 mM stock solution in 1% bovine serum albumin (BSA) and diluted in assay buffer (HBSS containing 20 mM HEPES, 0.1% BSA and 2.5 mM probenecid, pH7.4) for use in the assay at a final concentration of 70 pM. Test compounds are prepared as 10 mM stock solution in DMSO, then diluted in 384-well plates, first in DMSO, then assay buffer. On the day of the assay, cells are washed 3 times with 100 μl assay buffer and then incubated for 60 min (37° C., 5% CO2) in 60 μl assay buffer containing 1 μM Fluo-4AM ester, 0.02% pluronic acid, and 1% BSA. The dye loading solution is then aspirated and cells are washed 3 times with 100 μl assay buffer. 30 μl of that same buffer is left in each well. Within the Fluorescent Imaging Plate Reader (FLIPR, Molecular Devices), test compounds are added to the plate in a volume of 25 μl, incubated for 5 min and finally 25 μl of agonist is added. Fluorescence is measured for each well at 1 second intervals for 5 minutes and the height of each fluorescence peak is compared to the height of the fluorescence peak induced by […] Ala-6,12 orexin-A with buffer in place of antagonist. For each antagonist, IC50 value (the concentration of compound needed to inhibit 50% of the agonist response) is determined. Alternatively, compound potency can be assessed by a radioligand binding assay (described in Bergman et. al. Bioorg. Med. Chem. Lett. 2008, 18, 1425-1430) in which the inhibition constant (Ki) is determined in membranes prepared from CHO cells expressing either the OX1 or OX2 receptor. The intrinsic orexin receptor antagonist activity of a compound which may be used in the present invention may be determined by these assays. The following tables show representative data for the compounds of the Examples as orexin receptor antagonists as determined by the foregoing assays wherein the hOX2 Ki is a measure of the ability of the test compound to inhibit the action of the human orexin-2 receptor and the hOX1R is a measure of the ability of the test compound to inhibit the action of the rat orexin-1 receptor.

hOX1 (orexin-1 receptor) = biological target: T2, hOX1 (orexin-1 receptor) (Homo sapiens, UniProt O43613); test: radioligand binding assay, OX1 receptor (hOX1 Bind hKi); settings: membranes from CHO cells expressing the OX1 receptor
T2 construct: expressed in transfected cells; host or cells: CHO cells (membranes)
T2 sequence (O43613 1-425): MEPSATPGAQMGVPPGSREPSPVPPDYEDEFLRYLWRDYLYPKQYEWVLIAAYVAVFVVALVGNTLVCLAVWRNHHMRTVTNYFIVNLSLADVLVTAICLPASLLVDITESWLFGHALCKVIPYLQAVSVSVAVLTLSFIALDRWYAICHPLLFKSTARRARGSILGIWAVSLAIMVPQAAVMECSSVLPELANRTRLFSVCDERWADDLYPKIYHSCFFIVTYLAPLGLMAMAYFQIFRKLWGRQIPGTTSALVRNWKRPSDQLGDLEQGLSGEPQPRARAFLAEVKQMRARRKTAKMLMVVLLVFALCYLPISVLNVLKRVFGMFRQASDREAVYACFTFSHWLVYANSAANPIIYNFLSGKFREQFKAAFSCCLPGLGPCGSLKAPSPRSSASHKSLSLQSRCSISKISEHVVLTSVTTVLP

Structure (SMILES) | pKi (human orexin-2 receptor) | pKi (hOX1 (orexin-1 receptor))
C[C@@H]1CC[C@@H](C#Cc2ccc(CO)nc2)CN1C(=O)c1ccccc1-n1nccn1 [Example 7, (5-{[(3S,6R)-6-methyl-1-{[2-(2H-1,2,3-triazol-2-yl)phenyl]carbonyl}piperidin-3-yl]ethynyl}pyridin-2-yl)methanol] | ~6.82 | 6.47
Cc1ccc(-n2nccn2)c(C(=O)N2CCCCC2C#Cc2ccc3ccccc3c2)c1 (centres unmarked) [Example 19, 1-{[5-methyl-2-(2H-1,2,3-triazol-2-yl)phenyl]carbonyl}-2-(naphthalen-2-ylethynyl)piperidine] | 5.55 | < 6.32
C[C@@H]1CC[C@@H](C#Cc2ccncc2)CN1C(=O)c1ccccc1-n1nccn1 [Example 2, 4-{[(3S,6R)-6-methyl-1-{[2-(2H-1,2,3-triazol-2-yl)phenyl]carbonyl}piperidin-3-yl]ethynyl}pyridine] | 7.39 | 6.97
Cc1nc(C(=O)N2CCCCC2C#Cc2ccc3ccccc3n2)c(-c2ccccc2)s1 (centres unmarked) [Example 24, 2-({1-[(2-methyl-5-phenyl-1,3-thiazol-4-yl)carbonyl]piperidin-2-yl}ethynyl)quinoline] | < 6.12 | 6.63
C[C@@H]1CC[C@@H](C#Cc2ccccc2CO)CN1C(=O)c1ccccc1-n1nccn1 [Example 6, (2-{[(3S,6R)-6-methyl-1-{[2-(2H-1,2,3-triazol-2-yl)phenyl]carbonyl}piperidin-3-yl]ethynyl}phenyl)methanol] | 9.28 | 9.25
Cc1ccc(-n2nccn2)c(C(=O)N2CCCCC2C#Cc2ccccc2)c1 (centres unmarked) [Example 14, [5-Methyl-2-(2H-1,2,3-triazol-2-yl)phenyl][2-(phenylethynyl)piperidin-1-yl]methanone] | 6.36 | 6.45
C[C@@H]1CC[C@@H](C#Cc2ccnc(CO)c2)CN1C(=O)c1ccccc1-n1nccn1 [Example 12, (4-{[(3S,6R)-6-methyl-1-{[2-(2H-1,2,3-triazol-2-yl)phenyl]carbonyl}piperidin-3-yl]ethynyl}pyridin-2-yl)methanol] | 7.60 | 7.12
C[C@@H]1CC[C@@H](C#Cc2cncc(CO)c2)CN1C(=O)c1ccccc1-n1nccn1 [Example 11, (5-{[(3S,6R)-6-methyl-1-{[2-(2H-1,2,3-triazol-2-yl)phenyl]carbonyl}piperidin-3-yl]ethynyl}pyridin-3-yl)methanol] | 7.49 | 6.97
Cc1nc(C(=O)N2CCCCC2C#Cc2cc3ccccc3cn2)c(-c2ccccc2)s1 (centres unmarked) [Example 25, 3-({1-[(2-methyl-5-phenyl-1,3-thiazol-4-yl)carbonyl]piperidin-2-yl}ethynyl)isoquinoline] | < 7.00 | < 6.44
Cc1ccc(-n2nccn2)c(C(=O)N2CCCCC2C#Cc2ccc3ccccc3n2)c1 (centres unmarked) [Example 17, 2-[(1-{[5-methyl-2-(2H-1,2,3-triazol-2-yl)phenyl]carbonyl)piperidin-2-yl)ethynyl]quinoline] | < 5.35 | 6.48
C[C@@H]1CC[C@@H](C#Cc2cccnc2)CN1C(=O)c1ccccc1-n1nccn1 [Example 3, 3-{[(3S,6R)-6-methyl-1-{[2-(2H-1,2,3-triazol-2-yl)phenyl]carbonyl}piperidin-3-yl]ethynyl}pyridine] | 8.15 | 7.59
C[C@@H]1CC[C@@H](C#Cc2ccc(CO)cn2)CN1C(=O)c1ccccc1-n1nccn1 [Example 8, (6-{[(3S,6R)-6-methyl-1-{[2-(2H-1,2,3-triazol-2-yl)phenyl]carbonyl}piperidin-3-yl]ethynyl}pyridin-3-yl)methanol] | 6.89 | 6.68
C[C@@H]1CC[C@@H](C#Cc2cc(CO)ccn2)CN1C(=O)c1ccccc1-n1nccn1 [Example 10, (2-{[(3S,6R)-6-methyl-1-{[2-(2H-1,2,3-triazol-2-yl)phenyl]carbonyl}piperidin-3-yl]ethynyl}pyridin-4-yl)methanol] | 7.38 | 7.12
C[C@@H]1CCC(C#Cc2ccccn2)CN1C(=O)c1ccccc1-n1nccn1 (stereo in doubt) [Example 1, [(2R,5R)-2-Methyl-5-(pyridin-2-ylethynyl)piperidin-1-yl][2-(2H-1,2,3-triazol-2-yl)phenyl]methanone] | 7.96 | 7.57
Cc1nc(C(=O)N2CCCCC2C#Cc2ccc3ccccc3c2)c(-c2ccccc2)s1 (centres unmarked) [Example 21, 1-[(2-methyl-5-phenyl-1,3-thiazol-4-yl)carbonyl]-2-(naphthalen-2-ylethynyl)piperidine] | < 6.12 | < 5.80
Cc1nc(C(=O)N2CCCCC2C#Cc2cnc3ccccc3c2)c(-c2ccccc2)s1 (centres unmarked) [Example 26, 3-({1-[(2-methyl-5-phenyl-1,3-thiazol-4-yl)carbonyl]piperidin-2-yl}ethynyl)quinoline] | < 5.21 | < 5.80
C[C@@H]1CC[C@@H](C#Cc2cccc(CO)n2)CN1C(=O)c1ccccc1-n1nccn1 [Example 9, (6-{[(3S,6R)-6-methyl-1-{[2-(2H-1,2,3-triazol-2-yl)phenyl]carbonyl}piperidin-3-yl]ethynyl}pyridin-2-yl)methanol] | 8.25 | 7.74
Cc1nc(C(=O)N2CCCCC2C#Cc2ccc(F)cn2)c(-c2ccccc2)s1 (centres unmarked) [Example 22, 5-fluoro-2-({1-[(2-methyl-5-phenyl-1,3-thiazol-4-yl)carbonyl]piperidin-2-yl}ethynyl)pyridine] | < 5.64 | < 5.57
C[C@@H]1CC[C@@H](C#Cc2cnccc2O)CN1C(=O)c1ccccc1-n1nccn1 [Example 5, 3-{[(3S,6R)-6-methyl-1-{[2-(2H-1,2,3-triazol-2-yl)phenyl]carbonyl}piperidin-3-yl]ethynyl}pyridin-4-ol] | 8.12 | 6.06
Cc1nc(C(=O)N2CCCCC2C#Cc2ccc(F)cc2)c(-c2ccccc2)s1 (centres unmarked) [Example 23, 2-[(4-fluorophenyl)ethynyl]-1-[(2-methyl-5-phenyl-1,3-thiazol-4-yl)carbonyl]piperidine] | 6.14 | 6.73
Cc1ccc(-n2nccn2)c(C(=O)N2CCCCC2C#Cc2ccc(F)cn2)c1 (centres unmarked) [Example 15, 5-fluoro-2-[(1-{[5-methyl-2-(2H-1,2,3-triazol-2-yl)phenyl]carbonyl}piperidin-2-yl)ethynyl]pyridine] | 6.00 | < 5.59
C[C@@H]1CC[C@@H](C#Cc2cccnc2O)CN1C(=O)c1ccccc1-n1nccn1 [Example 4, 3-{[(3S,6R)-6-methyl-1-{[2-(2H-1,2,3-triazol-2-yl)phenyl]carbonyl}piperidin-3-yl]ethynyl}pyridin-2-ol] | 7.62 | 7.62

From patent publication US8940898B2, “Piperidinyl alkyne orexin receptor antagonists” (Merck Sharp & Dohme Corp., priority 2011, dated 2015)
